Reference: patent US20030225152A1, “3-(Arylamino)methylene-1, 3-dihydro-2h-indol-2-ones as kinase inhibitors” (priority 2001, published 2003)

What was measured:
[1] = target: T1, cytoplasmic domain of the human VEGF receptor (VEGFR-2) (Homo sapiens, UniProt P35968); experiment: KDR Assay; type: biochemical; conditions: His-VEGFR-2; 3.6 μM ATP
T1 construct: The cytoplasmic domain of the human VEGF receptor (VEGFR-2) was expressed as a Histidine-tagged fusion protein; Histidine tag
In short: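 IC50 taken from blank-corrected OD492 curves of an anti-phosphotyrosine peroxidase ELISA. Reaction: 10 min, 25 °C, 3.6 μM ATP, 50 mM Hepes pH 7.4 with 20 mM MgCl2, 0.1 mM MnCl2 and 5% DMSO, on poly-Glu-Tyr-coated wells, started with insect-cell-expressed His-VEGFR-2 cytoplasmic domain.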

[2] = tested on: VEGF induced increases in intracellular calcium levels in HUVEC (human umbilical vein endothelial cells); experiment: VEGF Stimulated Ca++ Signal in vitro (FLIPR); type: cell-based; conditions: VEGF 5 ng/mL; for IC50: 0.01 to 10.0 μM
In short: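 IC50 values derive from % inhibition of the VEGF (5 ng/mL) calcium response, taken as max-min fluorescence at 516 nm in Fluo-4-loaded HUVEC. Compounds (0.1% DMSO final) were added 30 min before stimulation, at 10 μM or across 0.01–10.0 μM.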

T1 sequence (P35968 786-1356): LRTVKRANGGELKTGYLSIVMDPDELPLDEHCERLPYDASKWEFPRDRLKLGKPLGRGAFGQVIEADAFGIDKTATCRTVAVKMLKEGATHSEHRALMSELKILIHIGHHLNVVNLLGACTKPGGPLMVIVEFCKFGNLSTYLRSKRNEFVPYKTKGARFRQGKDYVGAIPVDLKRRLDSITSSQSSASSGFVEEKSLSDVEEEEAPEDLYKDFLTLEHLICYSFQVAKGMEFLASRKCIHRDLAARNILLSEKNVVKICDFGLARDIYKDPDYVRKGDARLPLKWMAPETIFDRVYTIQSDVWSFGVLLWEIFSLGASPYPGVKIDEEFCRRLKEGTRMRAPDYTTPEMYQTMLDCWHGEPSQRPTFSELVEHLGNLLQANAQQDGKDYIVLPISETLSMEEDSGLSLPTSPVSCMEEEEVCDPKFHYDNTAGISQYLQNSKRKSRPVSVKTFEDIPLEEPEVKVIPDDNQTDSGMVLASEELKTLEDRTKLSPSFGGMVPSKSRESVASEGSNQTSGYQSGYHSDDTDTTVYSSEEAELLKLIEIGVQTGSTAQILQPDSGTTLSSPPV

| SMILES | IC50 [1] [nM] | IC50 [2] [nM] | IC50 ([2]; Homo sapiens) [nM] | inhibition at 10 µM ([2]; Homo sapiens) [%] |
| --- | --- | --- | --- | --- |
| CCN(CC)CCCOc1ccc(NC=C2C(=O)Nc3ccccc32)cc1F [Example 248, 3-{[4-(3-Diethylamino-propoxy)-3-fluoro-phenylamino]-methylene}-1,3-dihydro-indol-2-one] | 630 | 710 | ≤ 1000 | – |
| CC(O)c1ccc(NC=C2C(=O)Nc3ccc(Cl)cc32)cc1 (stereo not drawn) [Example 72, 5-Chloro-3-{[4-(1-hydroxy-ethyl)-phenylamino]-methylene}-1,3-dihydro-indol-2-one] | 430 | – | 1560 | 81.5 |
| COc1cccc(-c2ccc3c(c2)NC(=O)C3=CNc2ccc(OCCCN3CCCCC3)cc2)c1 [Example 276, 6-(3-Methoxy-phenyl)-3-{[4-(3-piperidin-1-yl-propoxy)-phenylamino]-methylene}-1,3-dihydro-indol-2-one] | 220 | – | 8810 | – |
| CC(=O)Nc1ccc(NC=C2C(=O)Nc3ccccc32)cc1 [Example 34, 3-[(4-Acetanilidylamino)-methylene]-1,3-dihydro-indol-2-one] | 470 | – | 2250 | 94.5 |
| Cc1cccc2c1C(=CNc1ccc(CCO)cc1)C(=O)N2 [Example 113, 3-{[4-(2-Hydroxy-ethyl)-phenylamino]-methylene}-4-methyl-1,3-dihydro-indol-2-one] | 200 | – | – | 97.5 |
| N#Cc1ccc2c(c1)C(=CNc1ccc(N3CCOCC3)cc1)C(=O)N2 [Example 237, 3-[(4-Morpholin-4-yl-phenylamino)-methylene]-2-oxo-2 ,3-dihydro-1 h-indole-5-carbonitrile] | 710 | – | – | 36.4 |
| CCOC(=O)Nc1ccc(NC=C2C(=O)Nc3ccccc32)cc1O [Example 134, {2-Hydroxy-4-[(2-oxo-1,2-dihydro-indol-3-ylidenemethyl)-amino]-phenyl}-carbamic acid ethyl ester] | 1120 | – | 7390 | 83.1 |
| O=C(O)CCc1ccc(NC=C2C(=O)Nc3ccc(Cl)cc32)cc1 [Example 146, 3-{4-[(5-Chloro-2-oxo-1,2-dihydro-indol-3-ylidenemethyl)-amino]-phenyl}-propionic acid] | 510 | – | 2070 | 98.4 |
| O=C1Nc2ccccc2C1=CNc1ccc(OCCCN2CCC(F)C2)cc1 (stereo not drawn) [Example 305, 3-({4-[3-(3-Fluoro-pyrrolidin-1-yl)-propoxy]-phenylamino}-methylene)-1,3-dihydro-indol-2-one] | 310 | 550 | ≤ 1000 | – |
| O=C1Nc2ccc(Cl)cc2C1=CNc1ccc(CCN2CCCCC2)cc1 [Example 285, 5-Chloro-3-{[4-(2-piperidin-1-yl-ethyl)-phenylamino]-methylene}-1,3-dihydro-indol-2-one] | 110 | 560 | ≤ 1000 | – |
| Cc1cccc2c1C(=CNc1ccc(C#N)cc1)C(=O)N2 [Example 128, 4-[(4-Methyl-2-oxo-1,2-dihydro-indol-3-ylidenemethyl)-amino]-benzonitrile] | 460 | – | 8260 | 42.9 |
| Cc1cccc2c1C(=CNc1ccc(CC(=O)O)cc1)C(=O)N2 [Example 131, {4-[(4-Methyl-2-oxo-1,2-dihydro-indol-3-ylidenemethyl)-amino]-phenyl}-acetic acid] | 770 | – | 1550 | 96.7 |
| COc1ccc(NC=C2C(=O)Nc3ccccc32)cc1F [Example 21, 3-[(3-Fluoro-4-methoxy-phenylamino)-methylene]-1,3-dihydro-indol-2-one] | 720 | – | 1500 | 88 |
| Cc1ccc(NC=C2C(=O)Nc3ccccc32)cc1C [Example 20, 3-[(3,4-Dimethyl-phenylamino)-methylene]-1,3-dihydro-indol-2-one] | 1210 | – | 1820 | 63 |
